The target of the first assay is histone deacetylase, subtype 1 (HDAC1) (Homo sapiens (Human), UniProt Q13547). Kind of assay: HDAC1-Flag in vitro deacetylation assay. The assay is classed as biochemical. The settings on record: IP = inflection point; read-out: HDAC1 IP (inflection point). Here is the method:
Novel compounds were tested for their ability to inhibit histone deacetylase, subtype 1 (HDAC1) using an in vitro deacetylation assay. The enzyme source for this assay was an epitope-tagged human HDAC1 complex immuno-purified from stably expressing mammalian cells. The substrate consisted of a commercial product containing an acetylated lysine side chain (BIOMOL Research Laboratories, Inc., Plymouth Meeting, Pa.). Upon deacetylation of the substrate by incubation with the purified HDAC1 complex, a fluorophore is produced that is directly proportional to the level of deacetylation.
Sequence of histone deacetylase, subtype 1 (HDAC1) (Q13547 whole entry): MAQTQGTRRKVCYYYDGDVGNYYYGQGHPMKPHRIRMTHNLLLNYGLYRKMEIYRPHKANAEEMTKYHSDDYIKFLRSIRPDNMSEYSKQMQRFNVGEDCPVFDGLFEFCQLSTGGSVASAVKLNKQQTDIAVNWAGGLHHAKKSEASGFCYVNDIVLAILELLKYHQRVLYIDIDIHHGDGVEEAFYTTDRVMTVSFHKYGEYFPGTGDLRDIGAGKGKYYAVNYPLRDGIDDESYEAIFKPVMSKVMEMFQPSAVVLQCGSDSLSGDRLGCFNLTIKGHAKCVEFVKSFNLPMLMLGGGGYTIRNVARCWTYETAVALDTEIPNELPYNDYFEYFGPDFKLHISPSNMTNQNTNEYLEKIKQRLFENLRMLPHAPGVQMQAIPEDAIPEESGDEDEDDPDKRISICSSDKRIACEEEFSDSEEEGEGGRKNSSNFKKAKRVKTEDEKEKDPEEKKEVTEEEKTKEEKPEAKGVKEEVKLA
Consider `CC(C)C(=O)NCc1ccc(C(=O)Nc2cc(-c3ccccc3)ccc2N)cc1` [Example 27, N-(4-aminobiphenyl-3-yl)-4-{[(2-methylpropanoyl)amino]methyl}benzamide], for which the IC50 is 0.01 µM.

Turning to `CC(C)(C)C(=O)NCc1ccc(C(=O)Nc2cc(-c3ccccc3)ccc2N)cc1` [Example 28, N-(4-aminobiphenyl-3-yl)-4-{[(2,2-dimethylpropanoyl)amino]methyl}benzamide], the IC50 stood at 0.025 µM.

As to `CC(C)CC(=O)NCc1ccc(C(=O)Nc2cc(-c3ccccc3)ccc2N)cc1` [Example 29, N-(4-aminobiphenyl-3-yl)-4-{[(3-methylbutanoyl)amino]methyl}benzamide], the IC50 stood at 0.014 µM.

Turning to `Nc1ccc(-c2ccccc2)cc1NC(=O)c1ccc(CNC(=O)C2CCC2)cc1` [Example 30, N-(4-aminobiphenyl-3-yl)-4-{[(cyclobutylcarbonyl)amino]methyl}benzamide], the IC50 was 0.023 µM.

On to `Nc1ccc(-c2ccccc2)cc1NC(=O)c1ccc(CNC(=O)CCc2ccccc2)cc1` [Example 31, N-(4-aminobiphenyl-3-yl)-4-{[(3-phenylpropanoyl)amino]methyl}benzamide], for which the IC50 turned out to be 0.014 µM.

With `Nc1ccc(-c2ccccc2)cc1NC(=O)c1ccc(CNC(=O)C2CCCCC2)cc1` [Example 32, N-(4-aminobiphenyl-3-yl)-4-{[(cyclohexylcarbonyl)amino]methyl}benzamide], the IC50 came out at 0.042 µM.

As for `Nc1ccc(-c2ccccc2)cc1NC(=O)c1ccc(CNC(=O)C2CCCC2)cc1` [Example 33, N-(4-aminobiphenyl-3-yl)-4-{[(cyclopentylcarbonyl)amino]methyl}benzamide], the IC50 was 0.021 µM.

Take `Nc1ccc(-c2ccccc2)cc1NC(=O)c1ccc(CNC(=O)Cc2ccccc2)cc1` [Example 34, N-(4-aminobiphenyl-3-yl)-4-{[(phenylacetyl)amino]methyl}benzamide]: the IC50 is 0.072 µM.

Turning to `Nc1ccc(-c2ccccc2)cc1NC(=O)c1ccc(CNC(=O)c2ccccc2)cc1` [Example 35, N-(4-aminobiphenyl-3-yl)-4-{[(phenylcarbonyl)amino]methyl}benzamide], the IC50 was found to be 0.019 µM.

For `CC(=O)NCc1ccc(C(=O)Nc2cc(-c3cccs3)ccc2N)cc1` [Example 36, 4-[(acetylamino)methyl]-N-[2-amino-5-(2-thienyl)phenyl]benzamide], the IC50 was 0.011 µM.

Regarding `CCC(=O)NCc1ccc(C(=O)Nc2cc(-c3cccs3)ccc2N)cc1` [Example 37, N-[2-amino-5-(2-thienyl)phenyl]-4-[(propanoylamino)methyl]benzamide], the IC50 turned out to be 0.012 µM.

On to `CCCC(=O)NCc1ccc(C(=O)Nc2cc(-c3cccs3)ccc2N)cc1` [Example 38, N-[2-amino-5-(2-thienyl)phenyl]-4-[(butanoylamino)methyl]benzamide], for which the IC50 amounted to 0.012 µM.

With `Nc1ccc(-c2cccs2)cc1NC(=O)c1ccc(CNC(=O)C2CC2)cc1` [Example 39, N-[2-amino-5-(2-thienyl)phenyl]-4-{[(cyclopropylcarbonyl)amino]methyl}benzamide], the IC50 turned out to be 0.015 µM.

Consider `CC(C)C(=O)NCc1ccc(C(=O)Nc2cc(-c3cccs3)ccc2N)cc1` [Example 40, N-[2-amino-5-(2-thienyl)phenyl]-4-{[(2-methylpropanoyl)amino]methyl}benzamide], for which the IC50 amounted to 0.016 µM.

In the case of `CC(C)(C)C(=O)NCc1ccc(C(=O)Nc2cc(-c3cccs3)ccc2N)cc1` [Example 41, N-[2-amino-5-(2-thienyl)phenyl]-4-{[(2,2-dimethylpropanoyl)amino]methyl}benzamide], the IC50 stood at 0.016 µM.

With `CC(C)CC(=O)NCc1ccc(C(=O)Nc2cc(-c3cccs3)ccc2N)cc1` [Example 42, N-[2-amino-5-(2-thienyl)phenyl]-4-{[(3-methylbutanoyl)amino]methyl}benzamide], the IC50 is 0.015 µM.

For the compound `Nc1ccc(-c2cccs2)cc1NC(=O)c1ccc(CNC(=O)C2CCC2)cc1` [Example 43, N-[2-amino-5-(2-thienyl)phenyl]-4-{[(cyclobutylcarbonyl)amino]methyl}benzamide], the IC50 stood at 0.011 µM.

With `Nc1ccc(-c2cccs2)cc1NC(=O)c1ccc(CNC(=O)CCc2ccccc2)cc1` [Example 44, N-[2-amino-5-(2-thienyl)phenyl]-4-{[(3-phenylpropanoyl)amino]methyl}benzamide], the IC50 was determined as 0.024 µM.

Turning to `Nc1ccc(-c2cccs2)cc1NC(=O)c1ccc(CNC(=O)C2CCCC2)cc1` [Example 46, N-[2-amino-5-(2-thienyl)phenyl]-4-{[(cyclopentylcarbonyl)amino]methyl}benzamide], the IC50 is 0.02 µM.

Turning to `Nc1ccc(-c2cccs2)cc1NC(=O)c1ccc(CNC(=O)Cc2ccccc2)cc1` [Example 47, N-[2-amino-5-(2-thienyl)phenyl]-4-{[(phenylacetyl)amino]methyl}benzamide], the IC50 is 0.016 µM.

For `Nc1ccc(-c2cccs2)cc1NC(=O)c1ccc(CNC(=O)c2ccccc2)cc1` [Example 48, N-[2-amino-5-(2-thienyl)phenyl]-4-{[(phenylcarbonyl)amino]methyl}benzamide], the IC50 was 0.013 µM.

Regarding `Nc1ccc(-c2cccs2)cc1NC(=O)c1ccc(CNC(=O)Cc2cccnc2)cc1` [Example 49, N-[2-amino-5-(2-thienyl)phenyl]-4-{[(pyridin-3-ylacetyl)amino]methyl}benzamide], the IC50 was determined as 0.01 µM.

Turning to `Nc1ccc(-c2ccccc2)cc1NC(=O)c1ccc(CNC(=O)Cc2ccccn2)cc1` [Example 50, N-(4-aminobiphenyl-3-yl)-4-{[(pyridin-2-ylacetyl)amino]methyl}benzamide], the IC50 came out at 0.019 µM.

As for `Nc1ccc(-c2ccccc2)cc1NC(=O)c1ccc(CNC(=O)Cc2cccnc2)cc1` [Example 51, N-(4-aminobiphenyl-3-yl)-4-{[(pyridin-3-ylacetyl)amino]methyl}benzamide], the IC50 was 0.14 µM.

With `Nc1ccc(-c2ccccc2)cc1NC(=O)c1ccc(CNC(=O)Cc2ccncc2)cc1` [Example 52, N-(4-aminobiphenyl-3-yl)-4-{[(pyridin-4-ylacetyl)amino]methyl}benzamide], the IC50 was determined as 0.015 µM.

As to `Nc1ccc(-c2ccccc2)cc1NC(=O)c1ccc(CNC(=O)CCc2cccnc2)cc1` [Example 53, N-(4-aminobiphenyl-3-yl)-4-{[(3-pyridin-3-ylpropanoyl)amino]methyl}benzamide], the IC50 was 0.016 µM.

In the next assay the test system is human cervical cancer (HeLa) and colon carcinoma (HCT116) cells. Put plainly: ATP (Vialight) cell proliferation assay, 72 hr. The assay is classed as cell-based. To be noted: IP = inflection point, cell line not given, read-out: Prol-72 hr IP (inflection point). As for the experimental part:
The novel compounds of the present invention were tested for their ability to inhibit proliferation of the human cervical cancer (HeLa) and colon carcinoma (HCT116) cells.
In this assay, also referred to as the Vialight Assay, cellular ATP levels are measured as a means of quantifying cellular proliferation. This assay makes use of a bioluminescent method from Cambrex (ViaLight PLUS, cat. #LT07-121). In the presence of ATP, luciferase converts luciferin to oxyluciferin and light. The amount of light produced (emission at 565 nm) is measured and correlates with a relative amount of proliferation. Human cervical cancer (HeLa) or colon carcinoma (HCT116) cells were incubated with vehicle or increasing concentrations of compound for 48, 72 or 96 hours. Cell proliferation was quantified by adding the cell lysis reagent (provided in the Vialight assay kit) directly to culture wells, followed by addition of the ATP-monitoring reagent (containing luciferase/luciferin). The amount of light produced is then measured (emission at 565 nm). The quantity of light produced, as measured by […], is directly proportional to the number of living cells in culture.
As to `CC(C)C(=O)NCc1ccc(C(=O)Nc2cc(-c3ccccc3)ccc2N)cc1` [Example 27, N-(4-aminobiphenyl-3-yl)-4-{[(2-methylpropanoyl)amino]methyl}benzamide], the IC50 came out at 0.15 µM.

As for `CC(C)(C)C(=O)NCc1ccc(C(=O)Nc2cc(-c3ccccc3)ccc2N)cc1` [Example 28, N-(4-aminobiphenyl-3-yl)-4-{[(2,2-dimethylpropanoyl)amino]methyl}benzamide], the IC50 worked out at 0.26 µM.

As for `CC(C)CC(=O)NCc1ccc(C(=O)Nc2cc(-c3ccccc3)ccc2N)cc1` [Example 29, N-(4-aminobiphenyl-3-yl)-4-{[(3-methylbutanoyl)amino]methyl}benzamide], the IC50 stood at 0.21 µM.

Regarding `Nc1ccc(-c2ccccc2)cc1NC(=O)c1ccc(CNC(=O)C2CCC2)cc1` [Example 30, N-(4-aminobiphenyl-3-yl)-4-{[(cyclobutylcarbonyl)amino]methyl}benzamide], the IC50 stood at 0.22 µM.

Regarding `Nc1ccc(-c2ccccc2)cc1NC(=O)c1ccc(CNC(=O)CCc2ccccc2)cc1` [Example 31, N-(4-aminobiphenyl-3-yl)-4-{[(3-phenylpropanoyl)amino]methyl}benzamide], the IC50 was 0.42 µM.

Turning to `Nc1ccc(-c2ccccc2)cc1NC(=O)c1ccc(CNC(=O)C2CCCCC2)cc1` [Example 32, N-(4-aminobiphenyl-3-yl)-4-{[(cyclohexylcarbonyl)amino]methyl}benzamide], the IC50 was found to be 0.34 µM.

For `Nc1ccc(-c2ccccc2)cc1NC(=O)c1ccc(CNC(=O)C2CCCC2)cc1` [Example 33, N-(4-aminobiphenyl-3-yl)-4-{[(cyclopentylcarbonyl)amino]methyl}benzamide], the IC50 is 0.2 µM.

Turning to `Nc1ccc(-c2ccccc2)cc1NC(=O)c1ccc(CNC(=O)Cc2ccccc2)cc1` [Example 34, N-(4-aminobiphenyl-3-yl)-4-{[(phenylacetyl)amino]methyl}benzamide], the IC50 is 0.31 µM.

Consider `Nc1ccc(-c2ccccc2)cc1NC(=O)c1ccc(CNC(=O)c2ccccc2)cc1` [Example 35, N-(4-aminobiphenyl-3-yl)-4-{[(phenylcarbonyl)amino]methyl}benzamide], for which the IC50 was 0.16 µM.

Turning to `CC(=O)NCc1ccc(C(=O)Nc2cc(-c3cccs3)ccc2N)cc1` [Example 36, 4-[(acetylamino)methyl]-N-[2-amino-5-(2-thienyl)phenyl]benzamide], the IC50 came to 0.12 µM.

With `CCC(=O)NCc1ccc(C(=O)Nc2cc(-c3cccs3)ccc2N)cc1` [Example 37, N-[2-amino-5-(2-thienyl)phenyl]-4-[(propanoylamino)methyl]benzamide], the IC50 came to 0.13 µM.

As for `CCCC(=O)NCc1ccc(C(=O)Nc2cc(-c3cccs3)ccc2N)cc1` [Example 38, N-[2-amino-5-(2-thienyl)phenyl]-4-[(butanoylamino)methyl]benzamide], the IC50 came to 0.15 µM.

In the case of `Nc1ccc(-c2cccs2)cc1NC(=O)c1ccc(CNC(=O)C2CC2)cc1` [Example 39, N-[2-amino-5-(2-thienyl)phenyl]-4-{[(cyclopropylcarbonyl)amino]methyl}benzamide], the IC50 stood at 0.096 µM.

Regarding `CC(C)C(=O)NCc1ccc(C(=O)Nc2cc(-c3cccs3)ccc2N)cc1` [Example 40, N-[2-amino-5-(2-thienyl)phenyl]-4-{[(2-methylpropanoyl)amino]methyl}benzamide], the IC50 amounted to 0.15 µM.

For the compound `CC(C)(C)C(=O)NCc1ccc(C(=O)Nc2cc(-c3cccs3)ccc2N)cc1` [Example 41, N-[2-amino-5-(2-thienyl)phenyl]-4-{[(2,2-dimethylpropanoyl)amino]methyl}benzamide], the IC50 came to 0.17 µM.

With `CC(C)CC(=O)NCc1ccc(C(=O)Nc2cc(-c3cccs3)ccc2N)cc1` [Example 42, N-[2-amino-5-(2-thienyl)phenyl]-4-{[(3-methylbutanoyl)amino]methyl}benzamide], the IC50 amounted to 0.12 µM.

In the case of `Nc1ccc(-c2cccs2)cc1NC(=O)c1ccc(CNC(=O)C2CCC2)cc1` [Example 43, N-[2-amino-5-(2-thienyl)phenyl]-4-{[(cyclobutylcarbonyl)amino]methyl}benzamide], the IC50 stood at 0.13 µM.

For the compound `Nc1ccc(-c2cccs2)cc1NC(=O)c1ccc(CNC(=O)CCc2ccccc2)cc1` [Example 44, N-[2-amino-5-(2-thienyl)phenyl]-4-{[(3-phenylpropanoyl)amino]methyl}benzamide], the IC50 was 0.2 µM.

Consider `Nc1ccc(-c2cccs2)cc1NC(=O)c1ccc(CNC(=O)C2CCCC2)cc1` [Example 46, N-[2-amino-5-(2-thienyl)phenyl]-4-{[(cyclopentylcarbonyl)amino]methyl}benzamide], for which the IC50 was 0.14 µM.

Regarding `Nc1ccc(-c2cccs2)cc1NC(=O)c1ccc(CNC(=O)Cc2ccccc2)cc1` [Example 47, N-[2-amino-5-(2-thienyl)phenyl]-4-{[(phenylacetyl)amino]methyl}benzamide], the IC50 was 0.15 µM.

With `Nc1ccc(-c2cccs2)cc1NC(=O)c1ccc(CNC(=O)c2ccccc2)cc1` [Example 48, N-[2-amino-5-(2-thienyl)phenyl]-4-{[(phenylcarbonyl)amino]methyl}benzamide], the IC50 was 0.11 µM.

For the compound `Nc1ccc(-c2cccs2)cc1NC(=O)c1ccc(CNC(=O)Cc2cccnc2)cc1` [Example 49, N-[2-amino-5-(2-thienyl)phenyl]-4-{[(pyridin-3-ylacetyl)amino]methyl}benzamide], the IC50 turned out to be 0.17 µM.

Consider `Nc1ccc(-c2ccccc2)cc1NC(=O)c1ccc(CNC(=O)Cc2ccccn2)cc1` [Example 50, N-(4-aminobiphenyl-3-yl)-4-{[(pyridin-2-ylacetyl)amino]methyl}benzamide], for which the IC50 turned out to be 0.3 µM.

For the compound `Nc1ccc(-c2ccccc2)cc1NC(=O)c1ccc(CNC(=O)Cc2cccnc2)cc1` [Example 51, N-(4-aminobiphenyl-3-yl)-4-{[(pyridin-3-ylacetyl)amino]methyl}benzamide], the IC50 was 2.1 µM.

Turning to `Nc1ccc(-c2ccccc2)cc1NC(=O)c1ccc(CNC(=O)Cc2ccncc2)cc1` [Example 52, N-(4-aminobiphenyl-3-yl)-4-{[(pyridin-4-ylacetyl)amino]methyl}benzamide], the IC50 is 0.25 µM.

For `Nc1ccc(-c2ccccc2)cc1NC(=O)c1ccc(CNC(=O)CCc2cccnc2)cc1` [Example 53, N-(4-aminobiphenyl-3-yl)-4-{[(3-pyridin-3-ylpropanoyl)amino]methyl}benzamide], the IC50 was 0.34 µM.

The values are drawn from patent publication US9096559B2, “4-carboxybenzylamino derivatives as histone deacetylase inhibitors” (Merck Sharp & Dohme Corp., priority 2007, dated 2015).
